In patent US20090123389A1, “Methods for modulating Th17 cell development in the treatment and prevention of cellulite” (priority 2007, published 2009):
Where “and” joins values, the source holds several entries; their conditions need not be identical. Identical values can stand only once.

Assays:
fibroblasts = assay: Protein synthesis, proliferation and death of cultured fibroblasts; assay type: cell-based
[1] = test system: T cell-mediated inflammation; details: oxazolone-induced; cited from earlier work
[2] = test system: unfolded protein response (Xbp-1 splicing); assay: Xbp-1 splicing / ER stress response in activated T cells
dermal fibroblasts = assay: Spreading and contractile activity of dermal fibroblasts on Type I collagen; assay type: cell-based, human
Description: Inhibitors of cellulite formation are also identified by observing the effect of the test compound on fibroblast behavior. In this assay, a control population of primary dermal fibroblasts are cultured in a matrix of Type I collagen, mimicking the interstitial matrix of the dermis and hypodermis, such that the fibroblasts attach to the substratum and spread, exerting contractile force on the surrounding interstitial matrix. In the test population, primary dermal fibroblasts are incubated on a matrix of Type I collagen in the presence of a test compound for a predetermined length of time, e.g., 24 hrs. The ability of the dermal fibroblasts to attach to the substratum and spread is then observed.
An assay is provided to test the effects of HF and other selective Th17 inhibitors on the behavior of cells likely to provide the basis for the structural features of cellulite—dermal fibroblasts and myofibroblasts. When human primary dermal fibroblasts are cultured in a matrix of Type I collagen, mimicking the interstitial matrix of the dermis and hypodermis, they attach to the substratum and spread, exerting contractile force on the surrounding interstitial matrix. […] The ability of the dermal fibroblasts to attach and spread when cultured in the presence of the Th17 inhibitor is detected.

dermal ECM deposition = details: cited from earlier work
CD4+ CD25− T cells = assay: Foxp3 (Treg marker) expression in TGFβ/IL-6 treated T cells; assay type: cell-based, mouse
Description: Low doses of halofuginone (HF) were tested to determine the ability of HF to enhance Treg differentiation, while suppressing Th17 differentiation. Naïve CD4+ T cells (CD4+ CD25−) were isolated from the spleen and peripheral lymph nodes of C57B/6 mice. T cells were then activated using anti-CD3 (0.3 μg/ml) and anti-CD28 (0.5 μg/ml) antibodies either in media alone (row 1, 4), TGFβ alone (3 ng/ml—row 2, 5) or TGFβ (3 ng/ml) plus IL-6 (30 ng/ml) (row 3, 6). […] T cells were cultured for 3 days and CD25 and Foxp3 expression (Treg marker genes) was determine by FACS staining and flow cytometric analyses. Simultaneously, T cells were harvested and re-stimulated for 4 hours using phorbol myristic acetate (PMA; 10 nM), Ionomycin (1 μM) and cytokine secretion was prevented using brefeldin A (20 μg/ml). Following stimulation, the production of IL-17 and IFNγ were determined by intracellular staining and analyzed via flow cytometry. […]
FACS analyses and sorting: All cell surface staining was performed in FACS buffer (PBS/2% FCS/0.1% NaN3) and antibodies were incubated with cells on ice for 20-30 minutes. […] All FACS data was acquired on a FACSCalibur flow cytometer (BD Pharmingen) and analyzed using FlowJo software (Treestar, Inc., Ashland, Oreg.). […]

[3] = test system: radiation induced fibrosis; details: IP, 1-5 μg/mouse; cited from earlier work
[4] = rabbit, in vivo; cited from earlier work

## O=C(CC1NCCCC1O)Cn1cnc2cc(Br)c(Cl)cc2c1=O (racemic) [HF, 7-bromo-6-chloro-3-[3-(3-hydroxy-2-piperidinyl)-2-oxopropyl]-4(3H)-quinazolinone]
fibroblasts
  concentrations that inhibit protein synthesis and cell proliferation of fibroblasts in culture: over 80 nM
fibroblasts; over a period of 5 days
  doses that do not cause death of cultured fibroblasts: up to 500 nM
[1]
  T cell-mediated inflammation (delayed-type hypersensitivity): inhibits this T cell-mediated inflammation
[2]
  expression of hallmark ER stress response genes (GRP78/BiP, calreticulin and others): did not induce
[2]; tunicamycin 1 μg/ml or 10 nM HF, 4 hours
  Xbp-1 splicing: without promoting Xbp-1 splicing
Dermal fibroblasts
  spreading and contractile activity of dermal fibroblasts: prevents the spreading and contractile activity
Dermal ECM deposition; intra-peritoneally, added to food, or applied locally
  excess dermal ECM deposition: reduces excess dermal ECM deposition
Dermal ECM deposition; topical HF, animal models
  wound healing: facilitate wound healing
CD4+ CD25− T cells; 10 nM HF, TGFβ plus IL-6, day 3
  Foxp3 expression of T cells differentiated in the presence of HF: enhanced Foxp3 expression
CD4+ CD25− T cells; TGFβ/IL-6 treated T-cells, 3 days
  HF concentration that increased expression of the Treg marker FoxP3: 2.5 to 10 nM and 2.2 to 10 nM
[3]
  radiation induced fibrosis: prevented radiation induced fibrosis
  toxic effect in mice: without evident toxic effect
[4]
  HF in serum after topical treatment of rabbits: undetectable in serum
